Key:
Assay type in all cases: biochemical
human p38α = target: T1, human p38α (Homo sapiens, UniProt Q16539); experiment: Test Example 1: p38α inhibition action (mobility shift, LabChip); conditions: Modified Erktide 1 μM, ATP 150 μM, Mg 5 mM, 1 hour room temperature
T1 construct: GST (N); made in house; host or cells: E. coli
Protocol: (§1) Evaluation of CK1δ Inhibitory Activity and p38α Inhibition Action
(§2) 1. Preparation of Solution of Test Substance
(§3) A test substance was dissolved in dimethyl sulfoxide (DMSO). The solution was further diluted with DMSO to prepare a solution at a concentration 100-fold greater than the test concentration. The solution was further 25-fold diluted with an assay buffer to prepare a solution of the test substance. The positive control substance was also treated as above to prepare a solution of the positive control substance.
(§4) 2. Preparation of Kinase Protein
p38α: Used was the human p38α prepared as followed: GST (66 KDa) was fused with the N-terminal of the 9-352 amino acid sequence site in accession number NP_620581.1, followed by expression in E. coli and then refining by a glutathione sepharose chromatography system, and the product was activated with His-tagged MAP2K6, and was again purified by the glutathione sepharose chromatography system.
(§5) 3. Reagent and Test Method
(§6) 5 μL of a 4-fold solution of the test substance prepared with an assay buffer (20 mM HEPES, 0.01% Triton X-100, 2 mM DTT, pH: 7.5), 5 μL of a 4-fold substrate/ATP/metal solution, and 10 μL of a 2-fold kinase solution were mixed in wells of a 384-well plate made of polypropylene, and were reacted at room temperature for 1 hour. 70 μL of Termination Buffer (QuickScout Screening Assist MSA; Carna Biosciences) was added to terminate the reaction. The substrate peptide and phosphorylated peptide in the reaction solution were separated by a LabChip system (Perkin Elmer), and were quantitated. The kinase reaction was evaluated based on the product ratio (P/(P+S)) calculated from the substrate peptide peak height (S) and the phosphorylated peptide peak height (P).
(§7) The average signal from control wells containing all the reaction components was defined as 0% inhibition, and the average signal from background wells (enzyme not added) was defined as 100% inhibition. The inhibition rate was calculated from the average signal of test wells containing each test substance. The IC50 value was determined through approximation of the plot against the test substance concentration and the inhibition rate to a 4-parameter logistic curve by non-linear least squares. The compounds in Examples had good CK1δ inhibition activity. A large difference was found between the CK1δ inhibition concentration and the p38α inhibition concentration.

human CK1δ = target: T2, human CK1δ (Homo sapiens, UniProt P48730); experiment: Test Example 1: CK1δ inhibitory activity (mobility shift, LabChip); conditions: for IC50: CKtide 1 μM, ATP 10 μM, Mg 5 mM, 1 hour room temperature; for Ratio (p38α/CK1δ): ratio of p38α IC50 to CK1δ IC50, Test Example 1
T2 construct: GST (N); made in house; host or cells: E. coli
T2 sequence (P48730 1-294): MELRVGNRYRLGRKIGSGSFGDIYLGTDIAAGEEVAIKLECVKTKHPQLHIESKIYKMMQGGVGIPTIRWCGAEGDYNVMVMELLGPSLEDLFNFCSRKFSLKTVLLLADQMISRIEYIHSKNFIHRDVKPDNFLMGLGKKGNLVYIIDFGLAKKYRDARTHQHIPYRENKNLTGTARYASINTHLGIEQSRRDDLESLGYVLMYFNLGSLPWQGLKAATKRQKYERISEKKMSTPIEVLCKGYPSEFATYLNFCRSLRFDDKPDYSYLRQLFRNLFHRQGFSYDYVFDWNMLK
Protocol: as §1, §2, §3, §4
CK1δ: Used was the human CK1δ prepared by fusing GST (61 KDa) with the N-terminal of the human CK1δ enzyme activity domain (1-294 amino acid sequence site in accession number NP_001884.2), followed by expression in E. coli and then refining by a glutathione sepharose chromatography system.
as §5, §6, §7

ALK5 [1] = target: T3, ALK5 (Homo sapiens, UniProt P36897); experiment: Test Example 2: ALK5 inhibition action (ADP-Glo kinase assay)
T3 sequence (P36897 34-503): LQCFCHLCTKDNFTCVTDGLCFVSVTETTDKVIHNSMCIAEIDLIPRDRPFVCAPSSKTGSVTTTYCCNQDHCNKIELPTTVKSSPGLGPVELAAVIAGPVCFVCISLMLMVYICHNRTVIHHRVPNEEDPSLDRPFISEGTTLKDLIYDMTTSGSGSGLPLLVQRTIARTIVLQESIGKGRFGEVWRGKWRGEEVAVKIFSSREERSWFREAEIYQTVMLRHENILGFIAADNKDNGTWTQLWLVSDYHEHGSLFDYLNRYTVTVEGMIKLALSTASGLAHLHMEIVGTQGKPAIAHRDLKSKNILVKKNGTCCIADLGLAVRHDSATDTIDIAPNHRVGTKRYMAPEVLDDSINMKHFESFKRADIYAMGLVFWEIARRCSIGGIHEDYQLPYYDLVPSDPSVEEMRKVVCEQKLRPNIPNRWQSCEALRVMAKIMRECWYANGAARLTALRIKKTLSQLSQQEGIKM
Protocol: (§8) Evaluation of ALK5 Inhibition Action
as §2
A 10% DMSO stock solution (compound concentration: 10 mM) containing 0.1 mg/mL BSA (bovine serum albumin) was prepared as a solution of the test substance.
3. Reagent, Test Method, and Reaction Conditions
A kinase assay was performed using ADP-Glo™ assay kit available from Promega Corporation according to the following assay reaction recipe: • Component 1: 1 μL diluted active protein kinase • Component 2: 1 μL of the substrate • Component 3: 1 μL kinase assay buffer • Component 4: 1 μL of the compound (10 concentrations) or 10% DMSO • Component 5: 1 μL ATP stock (25 μM final well concentration)
The assay started with incubation of the reaction mixture in a 384-well plate at room temperature for 40 minutes. After the incubation, 5 μL ADP-Glo™ reagent was added. The plate was shaken, followed by incubation at room temperature for 40 minutes. […] The plate was measured on a GloMax plate reader using ADP-Glo™ Luminescence Protocol. […] The corrected activity value was calculated by subtracting the value of the blank control from the measured value.
The relative luminescence unit (RLU) was measured at 10 compound concentrations between 0.3 nM and 10,000 nM. The inhibition rate was calculated as follows: {(Control RLU−Test RLU)/(Control RLU−Background RLU)}×100 […]

ALK5 [2] = target: T3, ALK5; experiment: Test Example 3: ALK5 inhibition action (ADP-Glo, SignalChem enzyme); set-up: GST; purchased SignalChem T07-11G; conditions: enzyme 5 ng/μL, TGFBR1 Peptide 200 ng/μL, ATP 25 μM, 2 hours
Protocol: as §8
Using a human recombinant GST-tagged TGFB available from SignalChem (Catalog No. T07-11G), a substrate peptide TGFBR1 Peptide (Catalog No. T36-58), and ADP-Glo assay kit (Promega Corporation), measurement was performed on a 5-μL reaction system in a 384-well plate (GloMax plate reader) according to the document attached to the ADP-Glo assay kit. For the reaction conditions used, the enzyme concentration was 5 ng/μL, the substrate concentration was 200 ng/μL, the ATP concentration was 25 μM, and the reaction time was 2 hours. The IC50 value was calculated using GraphPad Prism version 5.01 based on the inhibition rate where the test substance (8 to 10 concentrations, diluted 3-fold from 3000 nM) was added.

[3] = target: T4, human recombinant GST-tagged p38α (Homo sapiens, UniProt Q16539); experiment: Test Example 5: p38α inhibition action (ADP-Glo, SignalChem enzyme); conditions: enzyme 2 ng/μL, p38 Substrate 100 ng/μL, ATP 25 μM, 40 minutes
T4 construct: GST; purchased SignalChem M39-10 BG
Protocol: Evaluation of p38α Inhibition Action
(§9) Using a human recombinant GST-tagged p38α available from SignalChem (Catalog No. M39-10 BG), a substrate peptide p38 Substrate (Catalog No. P03-58), and ADP-Glo assay kit (Promega Corporation), measurement was performed on a 5-μL reaction system in a 384-well plate (GloMax plate reader) according to the document attached to the ADP-Glo assay kit. For the reaction conditions used, the enzyme concentration was 2 ng/μL, the substrate concentration was 100 ng/μL, the ATP concentration was 25 μM, and the reaction time was 40 minutes. The IC50 value was calculated using GraphPad Prism version 5.01 based on the inhibition rate where the test substance (8 to 10 concentrations, diluted 3-fold from 3000 nM) was added.

[4] = target: T5, human recombinant GST-tagged CK1δ (Homo sapiens, UniProt P48730); experiment: Test Example 4: CK1δ inhibition action (ADP-Glo, SignalChem enzyme); conditions: enzyme 2 ng/μL, Casein Dephosphorylated 200 ng/μL, ATP 25 μM, 40 minutes
T5 construct: GST; purchased SignalChem C65-10G
Protocol: Evaluation of CK1δ Inhibition Action
as §9, with “CK1δ” for “p38α”, “C65-10G),” for “M39-10 BG),”, “Casein Dephosphorylated” for “p38 Substrate”, “C03-54BN),” for “P03-58),”, “200” for “100”

T1 sequence (Q16539 9-352): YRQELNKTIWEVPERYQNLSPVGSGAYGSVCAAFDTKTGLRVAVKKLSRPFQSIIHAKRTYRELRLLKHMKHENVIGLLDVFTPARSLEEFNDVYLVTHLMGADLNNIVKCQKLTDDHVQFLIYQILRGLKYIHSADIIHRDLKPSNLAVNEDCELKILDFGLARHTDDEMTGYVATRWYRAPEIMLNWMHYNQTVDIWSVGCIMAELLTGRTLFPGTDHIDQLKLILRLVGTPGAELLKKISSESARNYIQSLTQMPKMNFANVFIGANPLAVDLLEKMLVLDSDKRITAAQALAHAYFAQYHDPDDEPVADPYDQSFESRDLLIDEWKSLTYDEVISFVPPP
T4 sequence (Q16539 whole entry): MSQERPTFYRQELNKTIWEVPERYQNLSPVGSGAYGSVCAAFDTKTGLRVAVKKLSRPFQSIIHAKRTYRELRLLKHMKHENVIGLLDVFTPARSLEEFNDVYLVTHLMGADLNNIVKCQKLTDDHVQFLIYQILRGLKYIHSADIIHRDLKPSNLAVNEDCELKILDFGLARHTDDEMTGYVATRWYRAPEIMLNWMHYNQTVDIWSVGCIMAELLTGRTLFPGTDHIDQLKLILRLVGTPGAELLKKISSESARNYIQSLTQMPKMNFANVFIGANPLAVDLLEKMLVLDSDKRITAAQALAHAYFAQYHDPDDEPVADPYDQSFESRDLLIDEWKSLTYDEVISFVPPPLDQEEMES
T5 sequence (P48730 whole entry): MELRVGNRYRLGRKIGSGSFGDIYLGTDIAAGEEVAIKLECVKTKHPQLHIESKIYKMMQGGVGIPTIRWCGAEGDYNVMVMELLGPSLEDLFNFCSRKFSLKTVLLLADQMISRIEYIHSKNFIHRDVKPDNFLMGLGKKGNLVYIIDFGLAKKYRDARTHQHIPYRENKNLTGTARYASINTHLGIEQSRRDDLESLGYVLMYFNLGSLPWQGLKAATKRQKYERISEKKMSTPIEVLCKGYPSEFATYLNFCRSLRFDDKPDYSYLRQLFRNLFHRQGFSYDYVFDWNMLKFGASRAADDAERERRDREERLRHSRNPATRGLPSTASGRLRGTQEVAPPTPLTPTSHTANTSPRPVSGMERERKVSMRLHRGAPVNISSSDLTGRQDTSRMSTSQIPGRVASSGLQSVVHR

SMILES	IC50 (human p38α) [nM]	IC50 (human CK1δ) [nM]	Ratio (p38α/CK1δ) (human CK1δ)	IC50 (ALK5 [1]; ATP 25 μM, 40 minutes, 10 concentrations 0.3-10,000 nM) [nM]	ALK5 inhibition activity (in words) (ALK5 [1]; Test Example 2, comment on Table 3)	IC50 (ALK5 [2]) [nM]	IC50 [3] [nM]	IC50 [4] [nM]
c1ccc(-c2[nH]cnc2-c2ccc3c(c2)COC3)nc1 [Example 1, 2-(4-(1,3-Dihydroisobenzofuran-5-yl)-1H-imidazol-5-yl)pyridine]	4000	21	190	31	good ALK5 inhibition activity	–	–	–
Cc1nc(-c2ccc3c(c2)COC3)c(-c2ccccn2)[nH]1 [Example 2, 2-(4-(1,3-Dihydroisobenzofuran-5-yl)-2-methyl-1H-imidazol-5-yl)pyridine]	> 10000	68	>150	–	–	–	–	–
Fc1ccc(-c2[nH]cnc2-c2ccc3c(c2)COC3)nc1 [Example 3, 2-(4-(1,3-Dihydroisobenzofuran-5-yl)-1H-imidazol-5-yl)-5-fluoropyridine]	4400	48	92	–	–	–	–	–
Cc1cccc(-c2[nH]cnc2-c2ccc3c(c2)COC3)n1 [Example 4, 2-(4-(1,3-Dihydroisobenzofuran-5-yl)-1H-imidazol-5-yl)-6-methylpyridine]	5200	110	47	–	–	46	–	–
c1ccc(-c2[nH]c(C3CC3)nc2-c2ccc3c(c2)COC3)nc1 [Example 5, 2-(2-Cyclopropyl-4-(1,3-dihydroisobenzofuran-5-yl)-1H-imidazol-5-yl)pyridine]	–	–	–	–	–	330	> 3000	200

Reference: patent publication US12473274B2, “Heterocyclic compound as inhibitor of casein kinase 1-δ and/or activin receptor-like kinase 5” (Alchemedicine, Inc., priority 2020, dated 2025)
